From ChEMBL document CHEMBL3734721 (J Med Chem, 2015)

Test system: Salmonella typhimurium
Assay: Mutagenicity in Salmonella typhimurium by Ames test
Type: toxicity, organism-based
Conditions: salmonella enterica subsp. enterica serovar typhimurium

Compound: CB1C=Cc2cccc(OCC(O)CNC(C)C)c2N1 (stereo unspecified)
- Activity: Non-toxic
